Values of other authors, collected in patent EP3731827B1, “ORAL PHARMACEUTICAL COMPOSITION COMPRISING POSACONAZOLE” (Sanovel Ilac Sanayi ve Ticaret A.S., priority 2017, dated 2019).
Where two headings read alike, the source gives them in different places.

SMILES: CC[C@@H]([C@H](C)O)n1ncn(-c2ccc(N3CCN(c4ccc(OC[C@@H]5CO[C@@](Cn6cncn6)(c6ccc(F)cc6F)C5)cc4)CC3)cc2)c1=O [posaconazole, 4-[4-[4-[4-[[(3R,5R)-5-(2,4-difluorophenyl)-5-(1,2,4-triazol-1-ylmethyl)oxolan-3-yl]methoxy]phenyl]piperazin-1-yl]phenyl]-2-[(2S,3S)-2-hydroxypentan-3-yl]-1,2,4-triazol-3-one]
- solubility (at pH 6.4 or higher): less than 1 µg/ml
- solubility (in the stomach): about 0.8 mg/ml
